Series [1] is described as follows: Spontaneous hydrolysis of probe in PBS buffer. The note with it: [S]0=20 μM. In kind it is physicochemical. The text has this: FIGS. 14A-14G illustrate the spontaneous hydrolysis in buffer of a probe according to the disclosure. FIG. 14A is a schema illustrating the spontaneous hydrolysis of a probe of the disclosure in PBS buffer to release umbelliferone and thereby generate a fluorescent signal. […] Initial concentration of probe, [P]: […] Error bars indicate the standard deviations of three replicate experiments.

Series [2] deals with VIM-27. The series is described as follows: Fluorescence of probes after incubation with recombinant VIM-27. To be noted: probe 10 μM, 2 h; for fluorescence enhancement: VIM-27 1 to 200 fmols, 25 μL 1×PBS pH 7.4, room temperature. In kind it is biochemical, Klebsiella pneumoniae. As for the experimental part:
(§1) The fluorescence of the probes was measured before and after enzyme treatment using enzyme concentrations in the range of about 1 to about 200 fmols. […] CDC-1, a previously reported non-specific probe for β-lactamases employed as a positive control, as described by Xie et al., (2012) J. Nat.

The next series deals with IMP-1 (Serratia marcescens, UniProt P52699). In kind it is biochemical, Escherichia coli. To be noted: probe 10 μM, 2 h; for fluorescence enhancement: IMP-1 1 to 200 fmols, 25 μL 1×PBS pH 7.4, room temperature.
The target of a further series is NDM-1 (Klebsiella pneumoniae, UniProt C7C422). In kind it is biochemical, Escherichia coli. The note with it: probe 10 μM, 2 h; for fluorescence enhancement: NDM-1 1 to 200 fmols, 25 μL 1×PBS pH 7.4, room temperature; for amount of enzyme giving detectable fluorescence: NDM-1.
Series [3] has as its target T1, KPC-3 (Klebsiella pneumoniae, UniProt Q9F663, H272Y). In kind it is biochemical. The note with it: probe 10 μM, 2 h; for amount of enzyme giving detectable fluorescence: KPC-3; for fluorescence enhancement: KPC-3 1 to 200 fmols, 25 μL 1×PBS pH 7.4, room temperature.
Series [4] has as its target T1, KPC-3. The note with it: from Lineweaver-Burk plots.
The subject of series [5] is VIM-27. Description: Kinetic parameters of probes with recombinant VIM-27 (Lineweaver-Burk plots). The note with it: from Lineweaver-Burk plots.
The subject of series [6] is [H][C@]1(OC(C)(C)C)C(=O)N2C(C(=O)O)=C(COc3ccc4ccc(=O)oc4c3)CS[C@@]21[H]. The series is described as follows: purified protein, by the assay type. To be noted: from Lineweaver-Burk plots.
For series [7], the system named is [H][C@]1(OC(C)C)C(=O)N2C(C(=O)O)=C(COc3ccc4ccc(=O)oc4c3)CS[C@@]21[H]. The series is described as follows: purified protein, by the assay type. To be noted: from Lineweaver-Burk plots.
Series [8] has as its system [H][C@]1(OC)C(=O)N2C(C(=O)O)=C(COc3ccc4ccc(=O)oc4c3)CS[C@@]21[H]. Description: purified protein, by the assay type. The note with it: from Lineweaver-Burk plots.
For series [9], the system named is [H][C@]1(OCC)C(=O)N2C(C(=O)O)=C(COc3ccc4ccc(=O)oc4c3)CS[C@@]21[H]. Description: purified protein, by the assay type. The note with it: from Lineweaver-Burk plots.
The test system of series [10] is [H][C@]1(OCc2ccccc2)C(=O)N2C(C(=O)O)=C(COc3ccc4ccc(=O)oc4c3)CS[C@@]21[H]. The series is described as follows: purified protein, by the assay type. The note with it: from Lineweaver-Burk plots.
In series [11] the test system is [H][C@]1(OS(=O)(=O)c2ccc(C)cc2)C(=O)N2C(C(=O)O)=C(COc3ccc4ccc(=O)oc4c3)CS[C@@]21[H]. Description: purified protein, by the assay type. To be noted: from Lineweaver-Burk plots.
For a further series, the target named is TEM-1 Bla (Escherichia coli, UniProt P62593). In kind it is biochemical. The note with it: TEM-1 Bla 1 to 200 fmols; probe 10 μM, 25 μL 1×PBS pH 7.4, room temperature, 2 h.
The target of a further series is BlaC (Mycobacterium tuberculosis, UniProt P9WKD3). Description: Fluorescence of probes after incubation with recombinant BlaC. In kind it is biochemical. The note with it: BlaC 1 to 200 fmols; probe 10 μM, 25 μL 1×PBS pH 7.4, room temperature, 2 h. As for the experimental part:
as §1

The subject of a further series is E. coli with IMP-1. To be noted: IMP-1-expressing bacteria; 2 h incubation.
For series [12], the system named is non-carbapenemase lactamases. Description: Hydrolysis of probes by non-carbapenemase lactamases.

As usually defined, the Km is the substrate concentration at which the rate is half of its maximum. A word on the kcat: it is the maximal rate divided by the concentration of active sites.

Consider `Cc1ccc(S(=O)(=O)O[C@H]2C(=O)N3C(C(=O)O)=C(COc4ccc5ccc(=O)oc5c4)CS[C@H]23)cc1` [(s)-CC-6, (6R,7S)-8-oxo-3-(((2-oxo-2H-chromen-7-yl)oxy)methyl)-7-(tosyloxy)-5-thia-1-azabicyclo[4.2.0]oct-2-ene-2-carboxylic Acid], for which the Spontaneous hydrolysis rate in series [1] turned out to be 2.6e-07 s⁻¹. The fluorescence enhancement result with VIM-27 [2], at IMP-1 and at NDM-1 was “fluorescence enhancement” in each case. Also, the “amount of enzyme giving detectable fluorescence” value (from here on “amount”) is reported as ≤ 1.0 fmol in the series on VIM-27 [2] (VIM-27), ≤ 1.0 fmol at IMP-1 (IMP-1), ≤ 1.0 fmol at NDM-1 and 200 fmol at KPC-3 [3]. Moreover, the Km at KPC-3 [4] was 18.7 ± 7.8 µM; in the series on VIM-27 [5], 14.1 ± 1.2 µM. The figures for the kcat at KPC-3 [4] and in the series with VIM-27 [5] were 0.3 ± 0.05 s⁻¹ and 3.9 ± 0.1 s⁻¹, respectively.
As to NDM-1 (Klebsiella pneumoniae), the Km in [6] (other: NDM-1) was 58.6 ± 16.0 µM; in series [7] (other: NDM-1), 6.0 ± 3.5 µM; in [8] (other: NDM-1), 12.0 ± 0.7 µM; in [9] (other: NDM-1) it was 14.9 ± 2.7 µM; in series [10] (other: NDM-1), 26.7 ± 0.2 µM; in [11] (other: NDM-1), 4.7 ± 0.3 µM. Also, the kcat in series [6] (other: NDM-1) amounted to 0.3 ± 0.04 s⁻¹; in series [7] (other: NDM-1) it was 0.1 ± 0.01 s⁻¹; in series [8] (other: NDM-1), 0.2 ± 0.02 s⁻¹; in series [9] (other: NDM-1) it was 0.3 ± 0.01 s⁻¹; in [10] (other: NDM-1), 0.3 ± 0.0 s⁻¹; in series [11] (other: NDM-1), 1.9 ± 0.06 s⁻¹. Moreover, the kcat/Km in series [6] (other: NDM-1) is on record as 5.1 × 10^3 s^−1M^−1; in series [7] (other: NDM-1), 2.0 × 10^4 s^−1M^−1; in series [8] (other: NDM-1) it was 2.0 × 10^4 s^−1M^−1; in [9] (other: NDM-1), 1.7 × 10^4 s^−1M^−1; in [10] (other: NDM-1), 1.0 × 10^4 s^−1M^−1; in series [11] (other: NDM-1), 4.0 × 10^5 s^−1M^−1.
In the case of `CCO[C@H]1C(=O)N2C(C(=O)O)=C(COc3ccc4ccc(=O)oc4c3)CS[C@H]12` [(s)-CC-2, (6R,7S)-7-ethoxy-8-oxo-3-(((2-oxo-2H-chromen-7-yl)oxy)methyl)-5-thia-1-azabicyclo[4.2.0]oct-2-ene-2-carboxylic Acid], the Spontaneous hydrolysis rate in series [1] is 5.9e-07 s⁻¹. Besides, the fluorescence enhancement result with VIM-27 [2] is “high fluorescence signals”; on IMP-1, “high fluorescence signals”; at NDM-1, “high fluorescence signals”; at KPC-3 [3] it was “high fluorescence signals”; on TEM-1 Bla, “almost no fluorescence enhancement”; on BlaC, “almost no fluorescence enhancement”. Moreover, the Km came to 39.1 ± 1.3 µM at KPC-3 [4] and 23 µM in the series on VIM-27 [5]. Moreover, the kcat at KPC-3 [4] was 0.3 ± 0.05 s⁻¹; with VIM-27 [5], 0.71 ± 0.0 s⁻¹.
On to `CO[C@H]1C(=O)N2C(C(=O)O)=C(COc3ccc4ccc(=O)oc4c3)CS[C@H]12` [(s)-CC-1, (6R,7S)-7-methoxy-8-oxo-3-(((2-oxo-2H-chromen-7-yl)oxy)methyl)-5-thia-1-azabicyclo[4.2.0.]oct-2-ene-2-carboxylic Acid], for which the Spontaneous hydrolysis rate in series [1] was determined as 7e-08 s⁻¹. For the same compound, the fluorescence enhancement result in the series with VIM-27 [2] was “high fluorescence signals”; on IMP-1 it was “high fluorescence signals”; on NDM-1 it was “high fluorescence signals”; at KPC-3 [3], “high fluorescence signals”; at TEM-1 Bla it was “almost no fluorescence enhancement”; on BlaC, “almost no fluorescence enhancement”. Moreover, the Km worked out at 67.7 ± 4.9 µM on KPC-3 [4] and 29.2 ± 7 µM in the series on VIM-27 [5]. In addition, the kcat on KPC-3 [4] turned out to be 1.5 ± 0.05 s⁻¹; in the series on VIM-27 [5], 1.1 ± 0.1 s⁻¹. Besides, the “number of bacteria detected / detection limit” value with E. coli with IMP-1 is reported as ≤ 10^4 c.f.u.
`O=C(O)C1=C(COc2ccc3ccc(=O)oc3c2)CS[C@@H]2[C@@H](OCc3ccccc3)C(=O)N12` [(s)-CC-5, (6R,7S)-7-(benzyloxy)-8-oxo-3-(((2-oxo-2H-chromen-7-yl)oxy)methyl)-5-thia-1-azabicyclo[4.2.0]oct-2-ene-2-carboxylic Acid] had a Spontaneous hydrolysis rate in series [1] of 2.7e-07 s⁻¹. The fluorescence enhancement result in the series on VIM-27 [2] is “high fluorescence signals”; on IMP-1 it was “high fluorescence signals”; at NDM-1, “high fluorescence signals”; at KPC-3 [3], “high fluorescence signals”; at TEM-1 Bla it was “almost no fluorescence enhancement”; at BlaC, “almost no fluorescence enhancement”. The results for the Km at KPC-3 [4] and in the series with VIM-27 [5] were 5.2 ± 0.5 µM and 145 ± 100 µM, respectively. For the same compound, the kcat at KPC-3 [4] was determined as 1.1 ± 0.01 s⁻¹; in the series on VIM-27 [5] it was 3.4 ± 1.5 s⁻¹. Also, the “hydrolysis by non-carbapenemase lactamases” value in series [12] is on record as “no hydrolysis”.
In the case of `CC(C)(C)O[C@H]1C(=O)N2C(C(=O)O)=C(COc3ccc4ccc(=O)oc4c3)CS[C@H]12` [(s)-CC-4, (6R,7S)-7-(tert-butoxy)-8-oxo-3-(((2-oxo-2H-chromen-7-yl)oxy)methyl)-5-thia-1-azabicyclo[4.2.0]oct-2-ene-2-carboxylic Acid], the Spontaneous hydrolysis rate in series [1] was determined as 5.4e-07 s⁻¹. The fluorescence enhancement entry on IMP-1 was “high specificity for IMP-1”. On NDM-1, the “amount” value is recorded as “about 200 fmol”. In addition, at KPC-3 [4], the Km stood at 121 ± 85 µM and the kcat was 0.2 ± 0.1 s⁻¹. Also, the “number of bacteria detected / detection limit” value in the series with E. coli with IMP-1 is recorded as “about 1×10^5 c.f.u”. In series [12], the “hydrolysis by non-carbapenemase lactamases” value was “No hydrolysis”. In the series with VIM-27 [5], the Km came to 91.6 ± 10.1 µM and the kcat is 0.2 ± 0.01 s⁻¹.
In series [1], `CC(C)O[C@H]1C(=O)N2C(C(=O)O)=C(COc3ccc4ccc(=O)oc4c3)CS[C@H]12` [(s)-CC-3, (6R,7S)-7-isopropoxy-8-oxo-3-(((2-oxo-2H-chromen-7-yl)oxy)methyl)-5-thia-1-azabicyclo[4.2.0]oct-2-ene-2-carboxylic Acid] had a Spontaneous hydrolysis rate of 4.8e-07 s⁻¹. For the same compound, the fluorescence enhancement result in the series with VIM-27 [2], on IMP-1 and at NDM-1 was “fluorescence enhancement” each time. Also, at KPC-3 [3], the “amount” value turned out to be 200 fmol. For the same compound, the Km at KPC-3 [4] is 250 ± 235 µM; in the series on VIM-27 [5], 61.3 ± 8.8 µM. For the same compound, the kcat stood at 0.2 ± 0.17 s⁻¹ at KPC-3 [4] and 0.5 ± 0.04 s⁻¹ with VIM-27 [5].
Turning to IMP-1 (Serratia marcescens), the Km is 9.4 ± 1.3 µM in series [6] (other: IMP-1); 3.2 ± 0.07 µM in [7] (other: IMP-1); 7.8 ± 0.2 µM in [8] (other: IMP-1); 12.9 ± 1.0 µM in series [9] (other: IMP-1); 3.6 ± 0.1 µM in series [10] (other: IMP-1); 3.4 ± 0.4 µM in [11] (other: IMP-1). Moreover, the kcat worked out at 2.1 ± 0.01 s⁻¹ in series [6] (other: IMP-1); 8.0 ± 0.04 s⁻¹ in series [7] (other: IMP-1); 12.2 ± 0.1 s⁻¹ in [8] (other: IMP-1); 16.6 ± 0.1 s⁻¹ in series [9] (other: IMP-1); 4.2 ± 0.03 s⁻¹ in [10] (other: IMP-1); 2.2 ± 0.02 s⁻¹ in series [11] (other: IMP-1). For the same compound, the kcat/Km in series [6] (other: IMP-1) is 2.2 × 10^5 s^−1M^−1; in [7] (other: IMP-1), 2.5 × 10^6 s^−1M^−1; in series [8] (other: IMP-1), 1.6 × 10^6 s^−1M^−1; in [9] (other: IMP-1) it was 1.3 × 10^6 s^−1M^−1; in series [10] (other: IMP-1) it was 1.2 × 10^6 s^−1M^−1; in series [11] (other: IMP-1), 6.6 × 10^5 s^−1M^−1.
